Earlier results in patent US20240424000A1, “LONG-ACTING INTRA-ARTICULAR DOSAGE FORMS CONTAINING FLUTICASONE PROPIONATE AND USE THEREOF” (Eupraxia Pharmaceuticals Inc., priority 2023, published 2024).

System: cartilage
Settings: IA every 12 weeks for 2 years; McAlindon et al. 2017

Compound: CC1(C)O[C@@H]2C[C@H]3[C@@H]4CCC5=CC(=O)C=C[C@]5(C)[C@@]4(F)[C@@H](O)C[C@]3(C)[C@]2(C(=O)CO)O1 [TCA, triamcinolone acetonide]
- effect of chronic exposure on cartilage: led to increased cartilage loss
